# Tests used:
# Cl^− secretion = assay: Short-circuit current (Isc) measurement with Ussing chambers, large-intestinal (cecum) mucosa specimen; format: cell-based, mouse
# Text: A mouse was killed by cervical vertebra dislocation. After abdominal incision, the cecum was extracted. The boundary parts of the cecum with the small intestine and the large intestine were cut to extract the cecum. The cecum was cut open with scissors into a sheet. In order to completely remove the contents, the cecum was pinched with tweezers and washed with replacement fluid. Replacement fluid was placed in a petri dish covered with rubber, and the cecum was attached thereon with the serosa side up. The muscular layer was separated using tweezers while constantly aerating the replacement fluid in the petri dish with 95% O2/5% CO2 to prepare a specimen composed of the mucosa and the submucosa. This specimen was divided into four pieces for use in the experiment.
# The mucosa specimen was placed between two Ussing-type chambers each having a window with an area of 0.2 cm^2 and containing 5 mL of replacement fluid. For the measurement of the electrical potential difference, a pair of calomel electrodes was connected to both chambers through 1 M KCl/2% agar salt bridges. For energization, Ag/AgCl electrodes connected through 1 M NaCl/2% agar salt bridges were installed. These electrodes were connected to a voltage clamp apparatus, and the short-circuit current (Isc) was measured. As for Isc, current flowing from the mucosa side to the serosa side was determined as being positive.
# Tetrodotoxin (TTX) was administered to the serosa side to block the nerve, and then forskolin (FK) was administered to the serosa side. […] At least part of this cAMP-dependent increase in Isc is attributable to the activation of a Cl^− secretion mechanism.
# Subsequently, the compound 1 was administered to the serosa side to decrease Isc (to suppress Cl^− secretion). […] Lastly, a Na^+.K^−.2Cl cotransporter inhibitor (which inhibits Cl^− secretion) was administered to the serosa side to observe a slight decrease in Isc.
# gastric acid secretion = assay: Gastric acid secretion measurement with Ussing chambers, stomach specimen stimulated with histamine; format: cell-based, mouse; conditions: for suppression of the gastric acid secretion rate: versus ground state; for Gastric acid secretion rate: histamine 1 mM on serosa side, 37° C.
# Description: A mouse was killed by cervical vertebra dislocation. After abdominal incision, the stomach was extracted. The gastric acid secretion portion was cut out, washed with replacement fluid, and divided into two pieces.
# The specimen was placed between two chambers facing each other and each having a window with an area of 0.2 cm^2 and containing 10 mL of replacement fluid. Decreases in pH of the replacement fluid in the chamber on the lumen side were successively measured using a pH electrode at 37° C. The gastric acid secretion rate was calculated from the decrease in pH measured after completion of the experiment and the previously measured buffer capacity of the replacement fluid. The experiment was conducted by previously administering histamine (1 mM) to the replacement fluid on the serosa side for stimulating gastric acid secretion.
# L-Menthol and compound 1 were administered to the replacement fluid on the lumen side so that the final concentrations were 50 μM and 100 μM, respectively. The administration was performed using stock solutions each having a concentration of 1000 times that of the target final concentration and using DMSO as a solvent. Compound 1 and 1-menthol were administered at 20 minutes and at 14 minutes, respectively, from the start of the experiment.
structure (smiles),measurement,setting,value
CCS(=O)(=O)N(C)[C@H]1c2cc(C#N)ccc2OC(C)(C)[C@@H]1O (racemic) [chromanol 293B],Isc-suppressing reaction,"Cl^− secretion; chromanol 293B administered first, before compound 1 (Example 2, FIG. 4)",can be observed
"CC1CCC(C(C)C)C(OCC(C)(O)CO)C1 (stereo not shown) [Compound 1, 2-methyl-3-(menthoxy)propane-1,2-diol]",suppression of the gastric acid secretion rate,gastric acid secretion; 100 μM,75%
same,Gastric acid secretion rate,"gastric acid secretion; Example 4, 100 μM on lumen side",0.43 micro Eq/cm^2/h
same,change in Isc (Cl^− secretion),"Cl^− secretion; administered to serosa side after TTX and forskolin (Example 1, FIG. 3)",decrease Isc
CC(C)[C@@H]1CC[C@@H](C)C[C@H]1O [l-Menthol],suppression of the gastric acid secretion rate,gastric acid secretion; 50 μM,57%
same,Gastric acid secretion rate,"gastric acid secretion; Example 5, 50 μM on lumen side",0.64 micro Eq/cm^2/h
same,decrease in Isc,"Cl^− secretion; chromanol 293B administered in advance (Examples 2 and 3, FIG. 4 and 5)",did not decrease the Isc

# From US20110281945A1, “GASTRIC ACID SECRETION INHIBITOR, AND POTASSIUM CHANNEL INHIBITOR” (priority 2009, published 2011)
